Experimental findings from the supplement of paper PMC10307832 are described below.

Holding throughout (test): relative viability (nuclei count vs DMSO), 5 days (fraction); higher = more cells survive
Compound in the assay “Bromopyruvate + OSI-027”: C(C(=O)C(=O)O)Br [Bromopyruvate] + COc1cccc2cc(-c3nc([C@H]4CC[C@H](C(=O)O)CC4)n4ncnc(N)c34)[nH]c12 [OSI-027] (partner 0.5 µM)
Summed up: (§1)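 Cells from lung cancer lines were seeded into 1536-well plates and, one day later, dosed by pin tool. Treatments were either a single drug or a fixed dose of an anchor drug with five library-drug doses (not always all listed) in √10 steps. After 5 days, nuclei were stained in a one-step fixation (final 0.05% Triton X-100, 1% formaldehyde, 1 ug/ml Hoechst) and counted on 4× images, and relative viability is the treated-to-vehicle nuclei ratio, as the median of duplicate plates.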

Compound in assay [1]: C(C(=O)C(=O)O)Br [Bromopyruvate] + Cc1cc(Nc2cc(N3CCN(C)CC3)nc(Sc3ccc(NC(=O)C4CC4)cc3)n2)n[nH]1 [Tozasertib] (partner 0.1 µM)
An outline of the steps: as §1

Compound in the assay “Bromopyruvate + AZD7762”: C(C(=O)C(=O)O)Br [Bromopyruvate] + NC(=O)Nc1cc(-c2cccc(F)c2)sc1C(=O)N[C@H]1CCCNC1 [AZD7762] (partner 0.2 µM)
Summed up: as §1

Compound in the assay “Bicalutamide + Alpelisib”: CC(O)(CS(=O)(=O)c1ccc(F)cc1)C(=O)Nc1ccc(C#N)c(C(F)(F)F)c1 [Bicalutamide] + Cc1nc(NC(=O)N2CCC[C@H]2C(N)=O)sc1-c1ccnc(C(C)(C)C(F)(F)F)c1 [Alpelisib] (partner 2 µM)
An outline of the steps:
as §1

NCI-H2405: the relative viability with Bromopyruvate + OSI-027 (first compound 1 µM) turned out to be 0.585; in the assay with Bromopyruvate + OSI-027 (first compound 3.162 µM), 0.659; with Bromopyruvate + OSI-027 (first compound 10 µM) it was 0.634; with Bromopyruvate + OSI-027 (first compound 31.62 µM) it was 0.556; with Bromopyruvate + OSI-027 (first compound 100 µM) it was 0.663; in assay [1] (first compound 1 µM), 0.806. Besides, the relative viability stood at 0.779 in assay [1] (first compound 3.162 µM); 0.723 in assay [1] (first compound 10 µM); 0.804 in assay [1] (first compound 31.62 µM); 0.785 in assay [1] (first compound 100 µM); 0.998 in the assay with Bromopyruvate + AZD7762 (first compound 1 µM); 0.888 in the assay with Bromopyruvate + AZD7762 (first compound 3.162 µM). The relative viability worked out at 0.887 in the assay with Bromopyruvate + AZD7762 (first compound 10 µM); 0.254 with Bromopyruvate + AZD7762 (first compound 100 µM); 0.789 with Bicalutamide + Alpelisib (first compound 0.08 µM); 0.775 with Bicalutamide + Alpelisib (first compound 0.253 µM); 0.827 in the assay with Bicalutamide + Alpelisib (first compound 0.8 µM); 0.775 with Bicalutamide + Alpelisib (first compound 2.53 µM).

Regarding NCI-H2023, the relative viability with Bromopyruvate + OSI-027 (first compound 1 µM) was found to be 0.391; with Bromopyruvate + OSI-027 (first compound 3.162 µM) it was 0.39; in the assay with Bromopyruvate + OSI-027 (first compound 10 µM) it was 0.49; in the assay with Bromopyruvate + OSI-027 (first compound 31.62 µM) it was 0.388; in the assay with Bromopyruvate + OSI-027 (first compound 100 µM), 0.374; in assay [1] (first compound 1 µM) it was 0.31. Also, the relative viability worked out at 0.4 in assay [1] (first compound 3.162 µM); 0.348 in assay [1] (first compound 10 µM); 0.482 in assay [1] (first compound 31.62 µM); 0.39 in assay [1] (first compound 100 µM); 0.593 in the assay with Bicalutamide + Alpelisib (first compound 0.08 µM); 0.59 with Bicalutamide + Alpelisib (first compound 0.253 µM). For the same cell line, the results for the relative viability with Bicalutamide + Alpelisib (first compound 0.8 µM) and with Bicalutamide + Alpelisib (first compound 2.53 µM) were 0.555 and 0.608, respectively.

For HCC-15, the relative viability stood at 0.711 with Bromopyruvate + OSI-027 (first compound 1 µM); 0.779 with Bromopyruvate + OSI-027 (first compound 3.162 µM); 0.781 with Bromopyruvate + OSI-027 (first compound 10 µM); 0.715 with Bromopyruvate + OSI-027 (first compound 31.62 µM); 0.654 in the assay with Bromopyruvate + OSI-027 (first compound 100 µM); 0.393 in assay [1] (first compound 1 µM). For the same cell line, the relative viability turned out to be 0.546 in assay [1] (first compound 3.162 µM); 0.286 in assay [1] (first compound 10 µM); 0.371 in assay [1] (first compound 31.62 µM); 0.399 in assay [1] (first compound 100 µM); 1.22 with Bromopyruvate + AZD7762 (first compound 1 µM); 1.25 with Bromopyruvate + AZD7762 (first compound 3.162 µM). Moreover, the relative viability is 1.32 in the assay with Bromopyruvate + AZD7762 (first compound 10 µM); 1.25 with Bromopyruvate + AZD7762 (first compound 31.62 µM); 1.22 in the assay with Bromopyruvate + AZD7762 (first compound 100 µM); 0.935 with Bicalutamide + Alpelisib (first compound 0.08 µM); 0.897 with Bicalutamide + Alpelisib (first compound 0.253 µM); 0.985 with Bicalutamide + Alpelisib (first compound 0.8 µM). Also, the relative viability with Bicalutamide + Alpelisib (first compound 2.53 µM) stood at 0.86.

Take HCC-44: the relative viability in the assay with Bromopyruvate + OSI-027 (first compound 1 µM) came out at 0.616; with Bromopyruvate + OSI-027 (first compound 3.162 µM), 0.634; with Bromopyruvate + OSI-027 (first compound 10 µM) it was 0.483; with Bromopyruvate + OSI-027 (first compound 31.62 µM) it was 0.596; with Bromopyruvate + OSI-027 (first compound 100 µM) it was 0.483; in assay [1] (first compound 1 µM), 0.953. The relative viability in assay [1] (first compound 3.162 µM) came out at 1; in assay [1] (first compound 10 µM), 0.997; in assay [1] (first compound 31.62 µM), 1.02; in assay [1] (first compound 100 µM), 0.882; with Bromopyruvate + AZD7762 (first compound 1 µM), 0.959; with Bromopyruvate + AZD7762 (first compound 3.162 µM), 1.01. For the same cell line, the relative viability with Bromopyruvate + AZD7762 (first compound 10 µM) was determined as 0.963; with Bromopyruvate + AZD7762 (first compound 31.62 µM) it was 1.02; with Bromopyruvate + AZD7762 (first compound 100 µM), 1.04; with Bicalutamide + Alpelisib (first compound 0.08 µM) it was 0.848; with Bicalutamide + Alpelisib (first compound 0.253 µM) it was 0.764; in the assay with Bicalutamide + Alpelisib (first compound 0.8 µM), 0.902. The relative viability with Bicalutamide + Alpelisib (first compound 2.53 µM) came out at 0.794.

In the case of COR-L23, the relative viability with Bromopyruvate + OSI-027 (first compound 1 µM) turned out to be 0.817; in the assay with Bromopyruvate + OSI-027 (first compound 3.162 µM), 0.879; with Bromopyruvate + OSI-027 (first compound 10 µM), 0.977; with Bromopyruvate + OSI-027 (first compound 31.62 µM), 0.705; in the assay with Bromopyruvate + OSI-027 (first compound 100 µM), 0.401; in assay [1] (first compound 1 µM), 0.198. For the same cell line, the relative viability was found to be 0.202 in assay [1] (first compound 3.162 µM); 0.183 in assay [1] (first compound 10 µM); 0.204 in assay [1] (first compound 31.62 µM); 0.0755 in assay [1] (first compound 100 µM); 0.846 with Bicalutamide + Alpelisib (first compound 0.08 µM); 0.757 with Bicalutamide + Alpelisib (first compound 0.253 µM). Further, the figures for the relative viability in the assay with Bicalutamide + Alpelisib (first compound 0.8 µM) and in the assay with Bicalutamide + Alpelisib (first compound 2.53 µM) were 0.843 and 0.727, respectively.
